Like-named read-outs stand apart in the source and are kept apart here. Square brackets hold non-standard residues; d marks the D form. Peptide text beside a SMILES is read from it. * marks the point of attachment. Cbz = O=C(OCc1ccccc1)*
Experiments:
[1] = test system: KMS12 multiple myeloma cells; assay: [3H]thymidine incorporation assay in KMS12; assay type: cell-based, human; conditions: read-out: IC50 [H^3] thymidine incorporation assay in KMS12
Protocol: The effects of Z-DTPs on the survival/proliferation of multiple myeloma cells were evaluated by the use of [^3H]thymidine) incorporation assays, performed as also described in Example 8. The amount of cell proliferation measured with each of the Z-DTPs' concentrations used and with the untreated cultures (i.e. cultures incubated with medium alone), was expressed as counts per minute (c.p.m.)—which directly correlate with the extent of cell proliferation. All experiments were performed in triplicate.
In these latter assays, the effects of Z-DTPs, Ac-DTPs and Z-LTPs on the survival/proliferation of tumour cell lines was investigated by measuring DNA synthesis using standard tritiated thymidine ([^3H]thymidine; [^3H]-TdR) uptake assays. In the analyses shown, cells were incubated for 24, 72, 120 or 144 hrs at 37° C. in the presence or absence of control or bioactive tetrapeptides, as indicated, then subjected to an additional incubation for 18 hrs with [^3H]-TdR (0.037 MBq/well, equivalent to 0.5 μCi/well). Cells were subsequently harvested onto glass fibre filter mats using a 96-well plate automated cell harvester, after which scintillation fluid was added, and [^3H]thymidine incorporation measured by liquid scintillation spectroscopy on a beta counter. The results are expressed as the percentages of the counts per minute (c.p.m.) (directly correlating with the extent of cell proliferation) measured with tetrapeptide-treated cultures relative to the c.p.m. measured with the corresponding cultures incubated with medium alone (untreated cells). All experiments were performed in triplicate.

Gadd45β/MKK7 interaction = biological target: T1, Gadd45β/MKK7 interaction (Homo sapiens, UniProt O14733); assay: Co-immunoprecipitation assay, lysates of HEK-293 cells expressing HA-Gadd45β and FLAG-MKK7; assay type: binding; conditions: 1 or 5 nM peptide
T1 construct: The GST-fused full-length kinase was coated for 16 h at 4° C., at a concentration of 42 nM; made in house
T1 sequence (O14733 1-419): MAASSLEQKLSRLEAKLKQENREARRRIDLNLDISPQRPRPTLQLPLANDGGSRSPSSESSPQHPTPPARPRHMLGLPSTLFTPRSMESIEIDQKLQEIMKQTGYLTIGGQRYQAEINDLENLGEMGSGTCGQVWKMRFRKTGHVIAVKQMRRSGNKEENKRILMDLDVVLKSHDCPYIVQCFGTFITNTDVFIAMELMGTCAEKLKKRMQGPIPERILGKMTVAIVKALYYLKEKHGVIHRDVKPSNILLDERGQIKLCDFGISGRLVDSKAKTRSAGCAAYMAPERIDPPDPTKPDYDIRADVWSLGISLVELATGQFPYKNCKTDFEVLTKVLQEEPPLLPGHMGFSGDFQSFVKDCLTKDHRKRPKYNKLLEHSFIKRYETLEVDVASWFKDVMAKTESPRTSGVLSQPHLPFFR
Protocol: Human Embryonic Kidney (HEK-293) were cultured in Dulbecco's modified Eagle's medium (DMEM) supplemented with 10% fetal calf serum (FCS), 100 units/ml penicillin, […] streptomycin, and 1% glutamine. HEK-293 cells (2.2×10^6) were seeded onto 10 cm^2 tissue-culture dishes, and the following day, were transfected with pcDNA-FLAG-MKK7 and pcDNA-HA-Gadd45β plasmids, using a standard Ca3(PO4)2 precipitation technique (Papa, S et al., (2004) Nat. Cell Biol. 6, 146-153). Forty-eight hours after transfection, the cells were washed once with PBS, then resuspended and incubated for 30 min at 4° C. in lysis buffer (20 mM HEPES, 350 mM NaCl, 20% glycerol, 1 mM MgCl2, 0.2 mM EGTA, 1 mM DTT, 1 mM Na3VO4, and 50 mM NaF) supplemented with protease inhibitors (1 mM phenylmethylsulfonylfluoride, 10 μM chymostatin, 2 μg/ml aprotinin, and 2 μg/ml leupeptin) with occasional gentle shaking. The lysed cells were collected and then centrifuged at 45,000×g for 40 min. The resulting cleared cell lysates were used for further analysis.
Immunoprecipitations were performed using essentially the same conditions described in Papa, S et al., (2004) Nat. Cell Biol. 6, 146-153 and the references therein, and an anti-FLAG antibody which precipitated FLAG-tagged MKK7. […]

BMSCs, PBMNCs and MSCs = assay: Viability/proliferation of primary untransformed human cells; assay type: cell-based; conditions: up to 100 μM; 48 hrs or 144 hrs
Protocol: (§1) In order to determine the in vitro therapeutic index of Z-/mDTPs, viability and proliferation assays were also performed with primary untransformed cells of both human and mouse origin, after treatment with either 10 μM or 100 μM of Z-DTP1, Z-DTP2 and Z-DNC. To this end, bone marrow stromal cells (BMSCs) peripheral blood mononuclear cells (PBMNCs) and mesenkymal stem cells (MSCs) were purified from healthy individuals after Ficoll-Hypaque density separation, in accordance with the protocols reported in the reference by Piva R. et all 2008 Blood 111: 2765-2775). BMSCs, PBMNCs, and MSCs cells were then treated for the times indicated and with the peptide concentrations specified in FIGS. 15A and 15B. To further establish the specificity of the cytotoxic activity of Z-/mDTPs for cancer cells, we also used primary B and T lymphocytes purified from the spleen and lymph nodes of mice, respectively, essentially as described in the reference by Shirakawa et al 2010 Cell Mal immunology 1-12. B and T cells were then activated by simulation with 1 ng/mL of LPS for 16 hrs and subsequently treated with 100 μM of Z-DTP1, Z-DTP2 or Z-DNC for 72 hrs as shown in FIG. 15B.

[2] = test system: primary B and T lymphocytes; assay: [3H]thymidine incorporation in purified primary B and T lymphocytes; assay type: cell-based, mouse; conditions: 100 μM, 72 hrs
Protocol: as §1

Row | Compound | IC50 ([1]; Day 1) [µM] | IC50 ([1]; Day 3) [µM] | IC50 ([1]; Day 6, listed as mDTP3) [µM] | IC50 ([1]; Day 6) [µM] | disruption of the Gadd45β/MKK7 interaction in co-immunoprecipitation (Gadd45β/MKK7 interaction) | toxicity to normal primary human cells (BMSCs, PBMNCs, MSCs) (BMSCs, PBMNCs and MSCs) | toxicity to primary B and T lymphocytes from mice [2] | IC50 ([1]; Day 3, listed as Z-DTP2) [µM]
1 | CC(=O)N[C@H](Cc1ccc(O)cc1)C(=O)N[C@H](CCCNC(=N)N)C(=O)N[C@H](Cc1ccccc1)C(N)=O [Compound 17, Ac-D-Tyr-D-Arg-D-Phe-NH2] (Ac-[dY]-[dR]-[dF]-NH2) | 0.354 | 0.081 | 0.025 | 0.016 |  |  |  | 
2 | CC(=O)N[C@H](Cc1ccc(O)cc1)C(=O)N[C@H](CCC(=O)O)C(=O)N[C@H](CCCNC(=N)N)C(=O)N[C@H](Cc1ccccc1)C(N)=O [DTP2, Acetyl-(D-Tyr)-(D-Glu)-(D-Arg)-(D-Phe)-NH2] (Ac-[dY][dE][dR][dF]-NH2) |  |  |  |  | no or very little Gadd45β |  |  | 
3 | CC(=O)N[C@H](Cc1ccc(O)cc1)C(=O)N[C@H](CC(=O)O)C(=O)N[C@H](Cc1c[nH]cn1)C(=O)N[C@H](Cc1ccccc1)C(N)=O [DTP1, Acetyl-(D-Tyr)-(D-Asp)-(D-His)-(D-Phe)-NH2] (Ac-[dY][dD][dH][dF]-NH2) |  |  |  |  | no or very little Gadd45β |  |  | 
4 | NC(=O)[C@@H](Cc1ccccc1)NC(=O)[C@@H](Cc1c[nH]cn1)NC(=O)[C@@H](CC(=O)O)NC(=O)[C@@H](Cc1ccc(O)cc1)NC(=O)OCc1ccccc1 [Compound 1, Z-Tyr-Asp-His-Phe-NH2] (Cbz-[dY][dD][dH][dF]-NH2) |  |  |  |  |  | no toxicity | no toxicity | 
5 | N=C(N)NCCC[C@@H](NC(=O)[C@@H](CCC(=O)O)NC(=O)[C@@H](Cc1ccc(O)cc1)NC(=O)OCc1ccccc1)C(=O)N[C@H](Cc1ccccc1)C(N)=O [Compound 9, Z-D-Tyr-D-Glu-D-Arg-D-Phe-NH2] (Cbz-[dY][dE][dR][dF]-NH2) | 1.3 | 0.141 |  | 0.066 |  | no toxicity | no toxicity | 0.144

Reference: patent publication US8993717B2, “Gadd45beta targeting agents” (Imperial Innovations Limited, priority 2009, dated 2015)
